Results taken from US20230075965A1, “USES OF BIOMARKERS FOR IMPROVING IMMUNOTHERAPY” (Dana-Farber Cancer Institute, Inc., priority 2020, published 2023).

Assays:
[1] = system: HLA-E on HT29 and SW620 cells; experiment: Flow cytometry of surface HLA-E after IFN-gamma, STAT1 KO vs control KO; assay type: cell-based, human; settings: HT29 and SW620, 5 ng/ml IFN-gamma overnight
Protocol: (§1) HT29 and SW620 cells were transduced with sgRNAs against STAT1 (or control OR genes) and treated overnight with vs. without 5 ng/ml IFN-gamma prior to staining. […] FIG. 6D CTG cytotoxicity assays (see Methods) for HT29 cells with HLA-E KO compared with control KO (data are represented as CTG cytotoxicity assays for HT29, SW620 cells with sgRNA against STAT1 (left) or HLA-E (right) or control KO (using OR10A2) at E:T 1:1, using 3-4 donors per line, n=7 different co-cultures, each co-culture was conducted in 6 replicates. (STAT1 p=7.24E-6, HLA-E p=2.27E-7, Mann-Whitney two sided test n=42). Data are represented as mean±SD). […] Pools of cells of the PRISM DNA-barcoded cell lines were labeled with a fluorescent conjugated antibody, sorted by flow cytometer into four bins based on its fluorescence levels and then sequenced to quantify the read counts of each barcode (and thus presence of cells from each cell line) in each bin. Surface protein expression scores were calculated per line from the read counts in each bin (see Method). […] Upper right: Normalized read counts of each bin sorted by SPIN. In view of the dynamic range of the antibody staining, the four bins were combined into two; reads from the top 2 bins with highest expression are labeled ‘High’ and reads from the 2 bins with lower staining are labeled ‘Low’. Middle right: calculated protein scores. […]

[2] = system: HLA-A/B/C on HT29 and SW620 cells; experiment: Flow cytometry of surface HLA-A/B/C after IFN-gamma, STAT1 KO vs control KO; assay type: cell-based, human; settings: HT29 and SW620, 5 ng/ml IFN-gamma overnight
Protocol: as §1

Question: Which “HLA-E surface expression upon IFN-gamma stimulation” value [1] does the source give for “IFN-gamma: interferon-gamma used to stimulate HLA-E and MHC class I expression on tumor cells” here?
Answer: upregulated in control KO, but not with STAT1 KO

Question: And the “HLA-A/B/C surface expression upon IFN-gamma stimulation” value [2]?
Answer: further increased with IFN-gamma stimulation in the control KO, but not in STAT1 KO cells
